Source: ChEMBL document CHEMBL3774336, “Identification of spirooxindole and dibenzoxazepine motifs as potent mineralocorticoid receptor antagonists” (Bioorg Med Chem, 2016)

Tests used:
[1] = target: T1, Alpha-2A adrenergic receptor (Homo sapiens) (UniProt P08913); assay: Inhibition of adrenergic alpha2A receptor (unknown origin) at 10 uM
T1 sequence (whole entry): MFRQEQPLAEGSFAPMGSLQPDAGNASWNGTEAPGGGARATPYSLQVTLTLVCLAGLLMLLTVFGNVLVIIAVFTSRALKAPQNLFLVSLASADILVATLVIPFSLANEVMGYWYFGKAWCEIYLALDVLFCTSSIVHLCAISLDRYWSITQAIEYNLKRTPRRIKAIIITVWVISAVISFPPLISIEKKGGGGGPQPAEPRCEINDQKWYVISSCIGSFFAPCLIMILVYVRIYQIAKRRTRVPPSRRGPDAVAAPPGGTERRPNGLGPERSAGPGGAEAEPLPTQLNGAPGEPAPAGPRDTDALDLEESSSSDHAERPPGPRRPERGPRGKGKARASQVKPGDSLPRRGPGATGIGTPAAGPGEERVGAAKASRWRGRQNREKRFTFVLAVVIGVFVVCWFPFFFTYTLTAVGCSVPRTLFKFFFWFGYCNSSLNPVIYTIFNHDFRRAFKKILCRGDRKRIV

[2] = system: T2, Mineralocorticoid receptor (Homo sapiens), P08235 [C808S]; assay: (§1) Agonist activity against 6xHis-MBP-fused human MR LBD domain (732 to 984 amino acid residues) C808S mutant expressed in Escherichia coli BL21(DE3) assessed as receptor activation after 16 hrs by luciferase assay
T2 sequence (whole entry): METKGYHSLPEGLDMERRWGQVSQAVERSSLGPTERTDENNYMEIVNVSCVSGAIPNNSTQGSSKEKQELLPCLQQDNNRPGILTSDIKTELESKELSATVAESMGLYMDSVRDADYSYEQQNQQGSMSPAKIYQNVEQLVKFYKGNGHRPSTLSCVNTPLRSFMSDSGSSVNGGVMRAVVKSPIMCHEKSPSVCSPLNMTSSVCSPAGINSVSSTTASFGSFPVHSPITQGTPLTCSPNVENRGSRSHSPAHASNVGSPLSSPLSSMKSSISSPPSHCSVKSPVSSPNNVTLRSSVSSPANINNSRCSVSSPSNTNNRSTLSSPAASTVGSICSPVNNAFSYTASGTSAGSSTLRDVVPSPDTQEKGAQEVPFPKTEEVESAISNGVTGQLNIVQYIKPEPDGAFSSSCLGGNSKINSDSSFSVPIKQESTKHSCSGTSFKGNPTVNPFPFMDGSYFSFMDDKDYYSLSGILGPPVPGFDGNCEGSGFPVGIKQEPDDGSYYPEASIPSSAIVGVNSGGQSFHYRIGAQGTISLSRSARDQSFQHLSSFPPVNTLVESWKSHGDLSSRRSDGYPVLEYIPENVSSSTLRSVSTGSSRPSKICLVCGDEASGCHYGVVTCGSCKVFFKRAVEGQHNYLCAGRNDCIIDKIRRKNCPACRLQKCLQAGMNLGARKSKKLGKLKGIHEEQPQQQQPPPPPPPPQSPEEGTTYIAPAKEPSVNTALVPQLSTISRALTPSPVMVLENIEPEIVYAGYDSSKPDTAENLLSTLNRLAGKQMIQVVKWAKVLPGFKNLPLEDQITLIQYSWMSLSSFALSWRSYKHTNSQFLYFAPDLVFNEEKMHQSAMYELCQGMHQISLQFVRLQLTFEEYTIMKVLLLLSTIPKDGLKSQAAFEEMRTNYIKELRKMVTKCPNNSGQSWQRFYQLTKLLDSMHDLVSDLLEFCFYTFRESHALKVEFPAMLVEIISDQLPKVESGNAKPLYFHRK

[3] = target: Mineralocorticoid receptor (Homo sapiens, UniProt P08235, C808S); assay: as §1
hERG (KCNH2) = hERG (KCNH2) (Homo sapiens, UniProt Q12809); assay: Inhibition of human ERG (unknown origin) at 10 uM
[4] = target: T3, Estrogen receptor (Homo sapiens) (UniProt P03372); assay: Inhibition of estrogen receptor (unknown origin) at 10 uM by Gal4-based luciferase assay
T3 sequence (whole entry): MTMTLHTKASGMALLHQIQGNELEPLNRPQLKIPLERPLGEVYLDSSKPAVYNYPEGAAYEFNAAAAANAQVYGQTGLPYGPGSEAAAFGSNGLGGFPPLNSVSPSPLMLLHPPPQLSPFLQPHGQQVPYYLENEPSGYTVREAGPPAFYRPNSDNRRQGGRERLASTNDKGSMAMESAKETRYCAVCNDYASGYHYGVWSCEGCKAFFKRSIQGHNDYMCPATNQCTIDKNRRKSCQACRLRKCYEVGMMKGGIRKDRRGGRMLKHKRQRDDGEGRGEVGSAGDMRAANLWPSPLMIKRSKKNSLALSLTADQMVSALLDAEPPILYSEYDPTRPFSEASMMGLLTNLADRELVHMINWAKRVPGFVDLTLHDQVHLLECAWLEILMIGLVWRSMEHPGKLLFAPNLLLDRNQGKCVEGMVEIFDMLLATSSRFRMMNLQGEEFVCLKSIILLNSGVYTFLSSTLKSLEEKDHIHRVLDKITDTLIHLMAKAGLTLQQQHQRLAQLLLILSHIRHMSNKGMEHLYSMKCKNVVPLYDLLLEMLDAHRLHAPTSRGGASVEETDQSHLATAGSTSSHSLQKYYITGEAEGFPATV

Cytochrome P450 2D6 = Cytochrome P450 2D6 (Homo sapiens, UniProt P10635); assay: Inhibition of CYP2D6 (unknown origin); assay type: ADME
[5] = Half life of compound in rat liver microsomes; assay type: ADME
Cytochrome P450 3A4 = Cytochrome P450 3A4 (Homo sapiens, UniProt P08684)
Description: Inhibition of CYP3A4 (unknown origin)

Cytochrome P450 2C9 = Cytochrome P450 2C9 (Homo sapiens, UniProt P11712); assay: Inhibition of CYP2C9 (unknown origin); assay type: ADME
Cytochrome P450 2C9, sequence (P11712 whole entry): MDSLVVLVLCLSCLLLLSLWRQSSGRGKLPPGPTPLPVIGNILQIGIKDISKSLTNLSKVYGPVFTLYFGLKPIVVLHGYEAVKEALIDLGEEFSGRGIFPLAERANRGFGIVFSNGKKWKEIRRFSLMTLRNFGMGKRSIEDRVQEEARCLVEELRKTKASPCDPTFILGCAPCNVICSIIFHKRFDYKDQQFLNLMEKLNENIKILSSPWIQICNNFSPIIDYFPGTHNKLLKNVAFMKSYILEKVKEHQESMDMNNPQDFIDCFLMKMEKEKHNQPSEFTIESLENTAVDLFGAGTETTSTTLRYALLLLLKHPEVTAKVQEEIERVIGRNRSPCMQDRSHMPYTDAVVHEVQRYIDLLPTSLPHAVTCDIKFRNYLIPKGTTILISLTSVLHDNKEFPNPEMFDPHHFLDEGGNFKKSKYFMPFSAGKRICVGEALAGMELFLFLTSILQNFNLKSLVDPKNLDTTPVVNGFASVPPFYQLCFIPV

hERG (KCNH2), sequence (Q12809 whole entry, the tested form may be a part): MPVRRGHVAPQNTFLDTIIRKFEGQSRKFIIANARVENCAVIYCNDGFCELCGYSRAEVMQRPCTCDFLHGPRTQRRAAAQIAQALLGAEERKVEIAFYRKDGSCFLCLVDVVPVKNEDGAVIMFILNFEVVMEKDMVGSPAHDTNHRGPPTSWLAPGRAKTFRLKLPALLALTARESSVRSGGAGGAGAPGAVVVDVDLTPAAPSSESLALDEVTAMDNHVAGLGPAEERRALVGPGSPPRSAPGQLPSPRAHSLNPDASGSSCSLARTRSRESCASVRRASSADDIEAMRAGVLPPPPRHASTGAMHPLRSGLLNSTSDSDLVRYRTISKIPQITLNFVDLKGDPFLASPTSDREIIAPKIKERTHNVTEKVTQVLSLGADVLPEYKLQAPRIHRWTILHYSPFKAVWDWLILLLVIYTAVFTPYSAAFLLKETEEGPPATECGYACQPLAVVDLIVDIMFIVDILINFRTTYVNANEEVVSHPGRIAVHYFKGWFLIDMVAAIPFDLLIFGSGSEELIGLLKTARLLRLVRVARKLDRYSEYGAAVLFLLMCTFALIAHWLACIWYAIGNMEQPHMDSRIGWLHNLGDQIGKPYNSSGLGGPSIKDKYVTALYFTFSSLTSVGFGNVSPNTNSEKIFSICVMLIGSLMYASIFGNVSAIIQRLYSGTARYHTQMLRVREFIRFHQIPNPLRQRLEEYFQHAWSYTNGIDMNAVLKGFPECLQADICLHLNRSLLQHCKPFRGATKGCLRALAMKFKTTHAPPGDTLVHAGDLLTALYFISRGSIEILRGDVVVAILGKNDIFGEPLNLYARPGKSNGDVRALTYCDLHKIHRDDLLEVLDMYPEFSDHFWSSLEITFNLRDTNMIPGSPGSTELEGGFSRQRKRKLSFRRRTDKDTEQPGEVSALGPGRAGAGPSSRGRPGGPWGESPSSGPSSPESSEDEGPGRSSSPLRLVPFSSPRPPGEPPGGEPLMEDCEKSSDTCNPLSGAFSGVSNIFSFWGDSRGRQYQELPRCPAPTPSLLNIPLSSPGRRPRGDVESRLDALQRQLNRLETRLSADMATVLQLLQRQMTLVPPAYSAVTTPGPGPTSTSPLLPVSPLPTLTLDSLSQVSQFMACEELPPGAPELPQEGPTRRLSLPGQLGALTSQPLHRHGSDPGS
Cytochrome P450 3A4, sequence (P08684 whole entry): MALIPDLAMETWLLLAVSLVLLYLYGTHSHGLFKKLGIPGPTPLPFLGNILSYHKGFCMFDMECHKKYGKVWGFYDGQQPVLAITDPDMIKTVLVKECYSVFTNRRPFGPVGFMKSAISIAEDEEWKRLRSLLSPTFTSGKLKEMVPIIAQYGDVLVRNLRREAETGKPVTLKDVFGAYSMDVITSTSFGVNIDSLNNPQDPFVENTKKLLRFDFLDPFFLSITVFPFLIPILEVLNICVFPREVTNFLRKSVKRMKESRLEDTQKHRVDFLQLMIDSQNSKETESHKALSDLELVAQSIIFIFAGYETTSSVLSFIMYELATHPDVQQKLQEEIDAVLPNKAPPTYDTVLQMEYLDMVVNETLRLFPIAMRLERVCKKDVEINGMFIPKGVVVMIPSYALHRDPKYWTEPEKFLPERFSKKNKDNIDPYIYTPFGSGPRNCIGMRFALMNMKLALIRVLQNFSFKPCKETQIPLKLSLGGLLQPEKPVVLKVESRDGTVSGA
Cytochrome P450 2D6, sequence (P10635 whole entry): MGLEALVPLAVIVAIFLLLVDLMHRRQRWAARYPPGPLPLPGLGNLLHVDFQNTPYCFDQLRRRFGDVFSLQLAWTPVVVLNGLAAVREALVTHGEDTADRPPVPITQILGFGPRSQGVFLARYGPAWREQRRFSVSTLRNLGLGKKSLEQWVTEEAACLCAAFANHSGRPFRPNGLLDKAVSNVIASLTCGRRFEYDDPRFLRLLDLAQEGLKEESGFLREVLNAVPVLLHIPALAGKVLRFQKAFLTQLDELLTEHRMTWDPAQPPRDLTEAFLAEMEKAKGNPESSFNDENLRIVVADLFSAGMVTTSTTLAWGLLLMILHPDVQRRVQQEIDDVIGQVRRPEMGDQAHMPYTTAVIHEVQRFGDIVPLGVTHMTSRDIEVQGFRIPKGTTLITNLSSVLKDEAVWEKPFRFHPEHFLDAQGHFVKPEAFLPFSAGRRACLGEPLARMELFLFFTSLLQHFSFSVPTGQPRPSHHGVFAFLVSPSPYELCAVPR

Activity [2] [%] | EC50 [3] [µM] | SMILES | inhibition [1] [%] | inhibition at 10 µM (hERG (KCNH2)) [%] | inhibition [4] [%] | IC50 (Cytochrome P450 2D6) [µM] | half-life [5] [min] | IC50 (Cytochrome P450 3A4) [µM] | IC50 (Cytochrome P450 2C9) [µM]
31 | 0.004 | O=C1COc2ccc(/C=C3\c4ccccc4COc4cc(F)ccc43)cc2N1 | 59 | 26 | – | – | – | – | –
– | – | CN1CCC2(CC1)C(=O)Nc1cc(/C=C3\c4ccccc4COc4cc(F)ccc43)ccc12 | 100 | 78 | < 40 | 7.62 | 31 | 7.04 | 2.83
